Results taken from US12428648B2, “Compositions comprising peptides that block transmission of orthotospoviruses” (priority 2019, dated 2025).
No end group written: not given here.

Test system: not listed separately
Assay: Dissolution of the synthesized peptides
Type: physicochemical
Settings: molecular biology grade water; 25% acetic acid for A229

Substance	solubility of the peptide, in words
NASIRGDHEVSQE [RGD]	dissolved in molecular biology grade water
NASIRAAHEVSQE [RAA]	dissolved in molecular biology grade water
NASIAADHEVSQE [AAD]	insoluble in H2O
NASIRGAHEVSQE [RGA]	dissolved in molecular biology grade water
NASIAGAHEVSQE [AGA]	dissolved in molecular biology grade water
NASIAAAHEVSQE [AAA]	dissolved in molecular biology grade water
RLTGECAITKVSLTN [A229]	did not dissolve in either water or 25% acetic acid
RLTGECNITKVSLTN [N229]	dissolved in molecular biology grade water
NASIAGDHEVSQE [AGD]	dissolved in molecular biology grade water
NASIRADHEVSQE [RAD]	insoluble in H2O

Target: α5β1 (Homo sapiens, UniProt P05556+P08648)
Sequence (P08648 42-1049): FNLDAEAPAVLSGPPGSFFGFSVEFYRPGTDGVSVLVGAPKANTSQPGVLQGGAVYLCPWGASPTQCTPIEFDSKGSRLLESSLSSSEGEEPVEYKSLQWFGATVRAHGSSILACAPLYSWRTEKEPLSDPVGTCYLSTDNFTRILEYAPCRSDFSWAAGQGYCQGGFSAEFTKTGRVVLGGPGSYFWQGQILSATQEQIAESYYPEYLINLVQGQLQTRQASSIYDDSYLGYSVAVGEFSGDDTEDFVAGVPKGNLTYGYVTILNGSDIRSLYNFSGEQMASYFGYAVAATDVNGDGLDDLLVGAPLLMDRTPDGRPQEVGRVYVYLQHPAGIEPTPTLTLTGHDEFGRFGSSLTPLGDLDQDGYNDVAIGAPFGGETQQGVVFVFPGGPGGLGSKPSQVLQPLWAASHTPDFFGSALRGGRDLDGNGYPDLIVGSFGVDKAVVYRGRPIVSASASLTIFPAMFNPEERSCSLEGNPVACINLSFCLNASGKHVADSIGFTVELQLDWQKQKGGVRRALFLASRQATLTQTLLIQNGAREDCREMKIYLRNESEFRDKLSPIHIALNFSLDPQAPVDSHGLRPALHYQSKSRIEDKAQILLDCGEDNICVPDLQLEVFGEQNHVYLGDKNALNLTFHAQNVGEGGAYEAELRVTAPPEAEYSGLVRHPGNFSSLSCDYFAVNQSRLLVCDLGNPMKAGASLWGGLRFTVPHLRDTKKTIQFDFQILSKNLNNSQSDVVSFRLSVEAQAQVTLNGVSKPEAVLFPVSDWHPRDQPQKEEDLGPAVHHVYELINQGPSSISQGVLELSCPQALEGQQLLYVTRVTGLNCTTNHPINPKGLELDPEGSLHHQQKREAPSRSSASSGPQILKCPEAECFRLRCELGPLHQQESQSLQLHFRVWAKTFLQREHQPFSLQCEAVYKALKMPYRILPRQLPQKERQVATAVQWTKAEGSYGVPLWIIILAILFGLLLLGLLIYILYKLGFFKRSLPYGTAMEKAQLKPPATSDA
Sequence (P05556 21-798): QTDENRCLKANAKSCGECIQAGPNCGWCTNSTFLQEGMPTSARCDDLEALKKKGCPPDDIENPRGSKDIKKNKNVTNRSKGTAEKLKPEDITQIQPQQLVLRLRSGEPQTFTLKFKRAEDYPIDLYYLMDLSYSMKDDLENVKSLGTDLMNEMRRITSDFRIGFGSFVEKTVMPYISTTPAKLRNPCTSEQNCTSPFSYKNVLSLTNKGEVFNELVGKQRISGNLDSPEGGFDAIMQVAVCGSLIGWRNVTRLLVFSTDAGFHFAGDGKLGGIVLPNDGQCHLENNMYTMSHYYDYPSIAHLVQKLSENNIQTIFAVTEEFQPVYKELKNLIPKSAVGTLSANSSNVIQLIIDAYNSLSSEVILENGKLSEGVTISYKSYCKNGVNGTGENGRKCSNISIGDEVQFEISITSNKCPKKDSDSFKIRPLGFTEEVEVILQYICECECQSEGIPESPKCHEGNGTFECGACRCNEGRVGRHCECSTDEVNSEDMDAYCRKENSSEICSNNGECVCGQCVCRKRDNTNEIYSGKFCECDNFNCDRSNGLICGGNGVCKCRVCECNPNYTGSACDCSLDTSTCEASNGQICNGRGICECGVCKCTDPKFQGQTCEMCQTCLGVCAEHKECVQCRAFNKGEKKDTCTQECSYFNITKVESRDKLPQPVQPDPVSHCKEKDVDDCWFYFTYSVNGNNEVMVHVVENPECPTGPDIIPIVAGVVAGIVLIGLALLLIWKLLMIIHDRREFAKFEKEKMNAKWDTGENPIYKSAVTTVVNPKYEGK
Assay: not given
Settings: Hersel et al., 2003; cited from earlier work

Substance	integrin binding preference, in words
RGDSPASSKP	bind preferentially to α5β1
GRGDSP	bind preferentially to α5β1

Target: αvβ3 (Homo sapiens, UniProt P05106+P06756)
Sequence (P06756 31-1048): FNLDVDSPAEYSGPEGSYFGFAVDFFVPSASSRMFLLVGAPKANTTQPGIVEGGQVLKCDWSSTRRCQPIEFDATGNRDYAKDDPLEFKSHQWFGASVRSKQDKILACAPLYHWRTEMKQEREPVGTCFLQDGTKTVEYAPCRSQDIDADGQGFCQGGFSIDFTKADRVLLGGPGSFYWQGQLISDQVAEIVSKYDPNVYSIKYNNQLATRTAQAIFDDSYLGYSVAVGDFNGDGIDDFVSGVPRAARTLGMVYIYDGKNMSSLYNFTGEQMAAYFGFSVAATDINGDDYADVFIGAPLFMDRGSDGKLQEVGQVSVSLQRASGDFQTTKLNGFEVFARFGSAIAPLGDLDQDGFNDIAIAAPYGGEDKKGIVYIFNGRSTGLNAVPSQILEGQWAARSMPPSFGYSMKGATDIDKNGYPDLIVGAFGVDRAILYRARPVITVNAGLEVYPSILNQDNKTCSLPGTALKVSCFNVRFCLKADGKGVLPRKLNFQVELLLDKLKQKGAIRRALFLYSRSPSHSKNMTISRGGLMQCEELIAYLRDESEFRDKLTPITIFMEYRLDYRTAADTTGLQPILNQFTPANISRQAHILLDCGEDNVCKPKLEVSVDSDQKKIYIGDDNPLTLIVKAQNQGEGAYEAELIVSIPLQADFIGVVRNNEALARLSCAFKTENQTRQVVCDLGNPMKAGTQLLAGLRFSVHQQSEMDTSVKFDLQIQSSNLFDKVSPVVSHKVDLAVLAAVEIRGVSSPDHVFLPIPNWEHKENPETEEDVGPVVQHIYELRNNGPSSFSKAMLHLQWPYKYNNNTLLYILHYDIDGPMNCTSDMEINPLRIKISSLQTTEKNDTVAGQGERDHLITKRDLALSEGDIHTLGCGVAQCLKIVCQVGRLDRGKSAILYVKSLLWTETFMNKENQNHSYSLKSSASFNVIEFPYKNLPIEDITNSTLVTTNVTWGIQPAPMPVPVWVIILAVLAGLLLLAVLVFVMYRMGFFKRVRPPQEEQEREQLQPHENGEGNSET
Sequence (P05106 27-788): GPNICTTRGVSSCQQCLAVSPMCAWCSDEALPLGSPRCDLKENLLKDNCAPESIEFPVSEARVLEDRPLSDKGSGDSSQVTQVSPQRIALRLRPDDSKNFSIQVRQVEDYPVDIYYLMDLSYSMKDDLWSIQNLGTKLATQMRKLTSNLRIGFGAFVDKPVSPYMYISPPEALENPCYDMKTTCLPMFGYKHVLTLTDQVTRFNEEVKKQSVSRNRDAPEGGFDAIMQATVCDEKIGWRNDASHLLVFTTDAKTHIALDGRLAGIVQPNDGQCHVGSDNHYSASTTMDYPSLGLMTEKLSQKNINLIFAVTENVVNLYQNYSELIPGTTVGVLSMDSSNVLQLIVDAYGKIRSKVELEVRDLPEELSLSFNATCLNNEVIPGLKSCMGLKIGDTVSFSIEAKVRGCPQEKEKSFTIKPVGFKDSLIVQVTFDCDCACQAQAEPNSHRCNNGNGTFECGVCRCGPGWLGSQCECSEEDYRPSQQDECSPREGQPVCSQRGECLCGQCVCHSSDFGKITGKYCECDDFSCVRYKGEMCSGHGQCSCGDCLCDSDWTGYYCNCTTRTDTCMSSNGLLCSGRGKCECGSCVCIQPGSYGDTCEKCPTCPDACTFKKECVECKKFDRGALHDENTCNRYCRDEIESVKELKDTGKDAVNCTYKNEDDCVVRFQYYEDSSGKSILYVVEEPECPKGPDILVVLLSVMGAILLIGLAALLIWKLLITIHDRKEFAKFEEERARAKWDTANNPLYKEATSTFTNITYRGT
Assay: not given
Settings: Hersel et al., 2003; cited from earlier work

Substance	integrin selectivity, in words
GPenGRGDSPCA	selective for αvβ3
